Like-named read-outs stand apart in the source and are kept apart here.
Assay: plasma pharmacokinetics, LC-MS/MS, noncompartmental analysis
Format: in vivo, human
Details: for Tmax / AUC(0-t) / Cmax: human, plasma, oral
Protocol: Samples were collected for PK analysis in cycle 1: 5 min pre-dose, 30 min, 1, 2, 3, 4, 6, and 8 h after drug administration on day 1 (schedules B and C) and on day 14 (for schedule B) or day 21 (for schedule C); 5 min pre-dose on days 8 and 12 (for schedule B) and at time of the visit on day 8 (168 h) for schedule C; 5 min pre-dose on day 18 (at time of the visit) for schedule B; and on day 22 (504 and 512 h) and day 29 (at time of the visit) for schedule C. For schedule B, a few additional samples were also taken in cycle 2: 5 min pre-dose, 2, 4, and 8 h on day 1, and 5 min pre-dose on day 2.
BI 894999 plasma concentrations were determined using a validated assay based on liquid chromatography coupled with tandem mass spectrometry. PK parameters were determined by noncompartmental analysis using the Phoenix WinNonlin software (Phoenix 6.3, Certara USA Inc., Princeton, NJ).

Compound `CNc1nc(-c2nc3ccc(N4CCN(C)CC4)cc3n2Cc2ccccc2)cn2c(C)nnc12` [BI 894999] has a Tmax (1.5 mg, phase Ia DLBCL, schedule B 1.5 mg, day 1, read-out: tmax median) of 2.02 h, a Tmax (1.5 mg, phase Ia DLBCL, schedule B 1.5 mg, day 14, read-out: tmax,ss median) of 2.56 h and a Tmax (2 mg, phase Ia DLBCL, schedule B 2.0 mg, day 1, read-out: tmax median) of 2.01 h. It also gave an AUC(0-t) (2 mg, phase Ia DLBCL, schedule B 2.0 mg, day 14, read-out: AUC0–24,ss gMean (gCV, %)) of 0.12 µM·h, a Tmax (2 mg, phase Ia DLBCL, schedule B 2.0 mg, day 14, read-out: tmax,ss median) of 2.12 h and a Tmax (2 mg, phase Ib solid tumors, schedule B 2.0 mg, day 1, read-out: tmax median) of 2 h. The Tmax (2 mg, phase Ib solid tumors, schedule B 2.0 mg, day 14, read-out: tmax,ss median) was 2 h, the AUC(0-t) (2.5 mg, phase Ia DLBCL, schedule B 2.5 mg, day 1, read-out: AUC0–24 gMean (gCV, %)) was 0.0533 µM·h and the Tmax (2.5 mg, phase Ia DLBCL, schedule B 2.5 mg, day 1, read-out: tmax median) was 2.04 h. It also gave a Tmax (2.5 mg, phase Ib, schedule B 2.5 mg including NUT carcinoma, day 1, read-out: tmax median) of 2.01 h, an AUC(0-t) (2.5 mg, phase Ib, schedule B 2.5 mg including NUT carcinoma, day 14, read-out: AUC0–24,ss gMean (gCV, %)) of 0.125 µM·h and a Tmax (2.5 mg, phase Ib, schedule B 2.5 mg including NUT carcinoma, day 14, read-out: tmax,ss median) of 2 h. The AUC(0-t) (4 mg, phase Ia DLBCL, schedule C 4.0/2.0 mg, day 1 after loading dose, read-out: AUC0–24 gMean (gCV, %)) was 0.138 µM·h, the Tmax (4 mg, phase Ia DLBCL, schedule C 4.0/2.0 mg, day 1 after loading dose, read-out: tmax median) was 2 h and the AUC(0-t) (6 mg, phase Ib, schedule C 6.0/3.0 mg NUT carcinoma only, day 1 after loading dose, read-out: AUC0–24 gMean (gCV, %)) was 0.214 µM·h. It also gave a Tmax (6 mg, phase Ib, schedule C 6.0/3.0 mg NUT carcinoma only, day 1 after loading dose, read-out: tmax median) of 2 h, an AUC(0-t) (phase Ib, schedule C 6.0/3.0 mg NUT carcinoma only, day 21, read-out: AUC0–24,ss gMean (gCV, %)) of 0.149 µM·h and a Tmax (phase Ib, schedule C 6.0/3.0 mg NUT carcinoma only, day 21, read-out: tmax,ss median) of 2.05 h. For the same compound, the Tmax (single dose day 1 and once-daily multiple doses days 14 or 21, read-out: median time to maximum plasma concentration (tmax)) was about 2 h, the Cmax (phase Ia DLBCL, schedule B 2.0 mg, day 14, read-out: Cmax,ss gMean (gCV, %)) was 7.67 nM and the Cmax (phase Ia DLBCL, schedule B 2.5 mg, day 1, read-out: Cmax gMean (gCV, %)) was 4.75 nM. The “dose dependence of plasma concentrations” value (within a dosing schedule and indication) was “increased with increasing dose”.

Reference: publication PMC12005229, “Final results from the phase Ia/Ib study of the novel bromodomain and extra-terminal domain inhibitor, BI 894999, in patients with advanced solid tumors or diffuse large B-cell lymphoma” (ESMO Open, 2025)
